US7754772B2, “Nitrosated nonsteroidal antiinflammatory compounds, compositions and methods of use” (NicOx, S.A., priority 2002, dated 2010)

Assays:
[1] = test system: Male Sprague Dawley rats, gastric hemorrhagic lesion; conditions: rat, in vivo, po
Description: Male Sprague Dawley rats (Charles River Laboratories, Wilmington, Mass.) weighing 230-250 g were used for the experiments. The rats were housed with laboratory chow and water ad libitum prior to the study. The rats were fasted for 24 hours with free access to water and then dosed by oral gavage with vehicle or with test compounds given at a volume of 0.5 mL/100 g. […] Rats were euthanized by CO2 three hours after dosing. The stomachs were dissected along the greater curvature, washed with a directed stream of 0.9% saline and pinned open on a sylgard based petri dish for examination of the hemorrhagic lesion. Gastric lesion score was expressed in mm and calculated by summing the length of each lesion.

[2] = test system: Male Sprague-Dawley rats, carrageenan paw edema; experiment: rat paw edema test (carrageenan), antiinflammatory activity; type: in vivo
Description: The rat paw edema test was used to measure the antiinflammatory activity. The rat paw edema test was performed according to the method of Winter et al, Proc. Soc. […] Male Sprague-Dawley rats (250-275 g) were fasted overnight and dosed by oral gavage with vehicle or suspensions of compound one hour prior to the subplantar injection of 50 μl of 1% suspension of carrageenan. Three hours later, the paw volume was measured and compared with the initial volume measured immediately after carrageenan injection.

[3] = oral gavage one hour prior to subplantar carrageenan, paw volume three hours later, expressed as ratio (Vehicle = 1)

Row | SMILES | Relative Activity Gastric Lesion [1] | Relative Activity Antiinflammation ([2]; in vivo, po) | Relative Activity Antiinflammation [2, 3]
1 | COc1ccc2cc([C@H](C)C(=O)OC[C@H](CO[N+](=O)[O-])O[N+](=O)[O-])ccc2c1 [Example 5] | 0.21 | 0.45 | 
2 | COc1ccc2cc([C@H](C)C(=O)OCC(=O)N3CCC(CO[N+](=O)[O-])CC3)ccc2c1 [Example 19, 2-(4-((Nitrooxy)methyl)piperidyl)-2-oxoethyl (2S)-2-(6-methoxy(2-naphthyl))propanoate] | 0.30 |  | 0.60
3 | COc1ccc2cc([C@H](C)C(=O)OCC(=O)N3CCC(CCO[N+](=O)[O-])CC3)ccc2c1 [Example 31, 2-(4-(2-(nitrooxy)ethyl)piperidyl)-2-oxoethyl (2S)-2-(6-methoxy(2-naphthyl))propanoate] | 0.06 |  | 0.61
4 | COc1ccc2cc([C@H](C)C(=O)Oc3ccccc3C(=O)OCCO[N+](=O)[O-])ccc2c1 [Example 33] | 0.07 |  | 0.60
5 | COc1ccc2cc([C@H](C)C(=O)Oc3cccc(C(=O)OCCO[N+](=O)[O-])c3)ccc2c1 [Example 36] | 0.57 | 0.65 | 
6 | COc1ccc2cc([C@H](C)C(=O)OCC(=O)N3CCN(CCO[N+](=O)[O-])CC3)ccc2c1.Cl [Example 37, 2-(4-(2-(Nitrooxy)ethyl)piperazinyl)-2-oxoethyl (2S)-2-(6-methoxy(2-naphthyl))propanoate hydrogen chloride] | 0.72 | 0.56 | 
